For 37 compounds, IC50 results are on record in patent US20240208968A1, “ALPHA V BETA 6 AND ALPHA V BETA 1 INTEGRIN INHIBITORS AND USES THEREOF” (DiCE Molecules SV, Inc., priority 2021, published 2024).

The structures appear in SMILES notation. Structures can show the parent of a compound that is named as a salt.

The target in one assay is αvβ1 (Homo sapiens, UniProt P05556+P06756). Nature of the assay: Solid Phase Integrin αvβ1 Assay. The format is binding. Put shortly:
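Wells coated with 1 µg/mL recombinant TGFb1-LAP and blocked with 2% BSA/TBST, 1 mM MnCl2; αvβ1 (added at 0.2 µg/mL) and compound incubated 90 min at room temperature. Bound integrin detected by streptavidin-HRP (20 min) and TMB after Mn-containing washes; IC50 by four-parameter logistic fit.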

In the next assay the target is αvβ6 (Homo sapiens, UniProt P06756+P18564). Nature of the assay: Solid Phase Integrin αvβ6 Assay. The format is binding. Put shortly: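 Plates coated with 1 μg/mL recombinant TGFb1-LAP; compounds and αvβ6 (0.2 μg/mL diluted stock) incubated 1 h at room temperature in 2% BSA/TBST with 1 mM MnCl2. Bound integrin detected with streptavidin-HRP and TMB; IC50 from four-parameter logistic fits.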
Sequence of αvβ6 (P06756 31-992 limits assumed): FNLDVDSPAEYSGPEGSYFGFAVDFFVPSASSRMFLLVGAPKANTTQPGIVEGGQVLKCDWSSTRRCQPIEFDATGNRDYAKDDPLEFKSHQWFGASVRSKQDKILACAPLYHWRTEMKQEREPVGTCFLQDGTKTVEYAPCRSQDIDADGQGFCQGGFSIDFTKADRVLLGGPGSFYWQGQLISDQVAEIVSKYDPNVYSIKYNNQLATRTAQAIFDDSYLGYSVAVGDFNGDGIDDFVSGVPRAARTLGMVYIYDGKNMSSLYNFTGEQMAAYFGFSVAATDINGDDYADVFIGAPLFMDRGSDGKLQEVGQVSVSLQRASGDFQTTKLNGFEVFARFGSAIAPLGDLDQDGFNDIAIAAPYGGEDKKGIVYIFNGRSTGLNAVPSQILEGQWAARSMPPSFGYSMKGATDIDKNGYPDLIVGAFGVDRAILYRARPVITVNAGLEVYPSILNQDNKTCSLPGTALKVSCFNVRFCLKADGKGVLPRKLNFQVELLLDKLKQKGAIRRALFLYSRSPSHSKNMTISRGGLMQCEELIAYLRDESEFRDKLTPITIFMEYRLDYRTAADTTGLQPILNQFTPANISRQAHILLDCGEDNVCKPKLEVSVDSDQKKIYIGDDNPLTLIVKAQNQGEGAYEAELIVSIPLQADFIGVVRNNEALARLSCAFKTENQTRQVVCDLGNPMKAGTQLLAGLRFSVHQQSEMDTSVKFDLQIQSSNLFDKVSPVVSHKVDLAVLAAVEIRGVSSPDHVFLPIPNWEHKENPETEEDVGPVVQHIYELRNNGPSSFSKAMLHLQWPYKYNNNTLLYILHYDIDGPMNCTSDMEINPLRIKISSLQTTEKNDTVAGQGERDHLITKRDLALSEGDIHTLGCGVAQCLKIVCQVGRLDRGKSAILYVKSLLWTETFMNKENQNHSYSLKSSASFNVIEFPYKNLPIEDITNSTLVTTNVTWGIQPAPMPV
Sequence of αvβ6 (P18564 22-707 limits assumed): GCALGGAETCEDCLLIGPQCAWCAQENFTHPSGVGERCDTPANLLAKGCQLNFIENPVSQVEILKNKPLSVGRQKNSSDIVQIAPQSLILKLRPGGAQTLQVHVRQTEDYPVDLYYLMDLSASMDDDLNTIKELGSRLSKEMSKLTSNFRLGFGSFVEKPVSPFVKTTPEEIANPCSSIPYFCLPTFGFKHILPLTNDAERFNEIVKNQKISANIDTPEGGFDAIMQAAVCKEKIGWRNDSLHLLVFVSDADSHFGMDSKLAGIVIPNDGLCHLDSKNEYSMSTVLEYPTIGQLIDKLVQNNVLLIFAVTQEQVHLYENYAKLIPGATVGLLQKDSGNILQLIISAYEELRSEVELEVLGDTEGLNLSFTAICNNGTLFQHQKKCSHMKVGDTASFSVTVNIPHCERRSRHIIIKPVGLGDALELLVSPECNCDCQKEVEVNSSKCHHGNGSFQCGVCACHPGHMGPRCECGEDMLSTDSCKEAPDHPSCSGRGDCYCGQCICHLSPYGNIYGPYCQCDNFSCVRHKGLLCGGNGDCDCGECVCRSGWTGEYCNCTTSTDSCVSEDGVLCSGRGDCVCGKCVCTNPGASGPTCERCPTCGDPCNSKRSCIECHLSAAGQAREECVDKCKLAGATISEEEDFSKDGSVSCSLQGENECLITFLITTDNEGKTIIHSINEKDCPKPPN

Sequence of αvβ1 (P06756 31-992 limits assumed): as the sequence (P06756 31-992 limits assumed) above
Sequence of αvβ1 (P05556 21-728 limits assumed): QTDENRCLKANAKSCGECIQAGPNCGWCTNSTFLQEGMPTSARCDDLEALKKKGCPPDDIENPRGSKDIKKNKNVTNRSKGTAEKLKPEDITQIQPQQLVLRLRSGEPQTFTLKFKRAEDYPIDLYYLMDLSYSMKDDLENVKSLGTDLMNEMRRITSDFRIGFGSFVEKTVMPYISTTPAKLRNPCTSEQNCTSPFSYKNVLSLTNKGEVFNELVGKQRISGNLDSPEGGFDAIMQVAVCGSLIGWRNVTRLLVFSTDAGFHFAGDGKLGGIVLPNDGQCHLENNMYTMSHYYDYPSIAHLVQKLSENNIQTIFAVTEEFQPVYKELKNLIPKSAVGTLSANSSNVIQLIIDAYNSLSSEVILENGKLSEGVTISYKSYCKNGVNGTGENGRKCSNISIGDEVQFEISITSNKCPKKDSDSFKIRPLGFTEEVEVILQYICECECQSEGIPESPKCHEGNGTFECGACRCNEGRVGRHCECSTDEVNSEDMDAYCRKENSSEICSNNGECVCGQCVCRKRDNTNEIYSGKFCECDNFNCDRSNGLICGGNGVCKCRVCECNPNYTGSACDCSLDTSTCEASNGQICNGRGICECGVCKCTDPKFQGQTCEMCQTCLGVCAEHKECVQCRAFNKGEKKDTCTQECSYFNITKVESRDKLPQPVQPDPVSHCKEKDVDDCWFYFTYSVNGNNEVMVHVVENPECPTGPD

As to `Cc1cnn(C)c1-c1cccc([C@H](CC(=O)O)NC(=O)[C@@H]2CCCN(CCCc3ccc4c(n3)NCCC4)C2)c1` [Compound 226, (S)-3-(3-(1,4-dimethyl-1H-pyrazol-5-yl)phenyl)-3-((R)-1-(3-(5,6,7,8-tetrahydro-1,8-naphthyridin-2-yl)propyl)piperidine-3-carboxamido)propanoic acid hydrochloride], the IC50 against αvβ1 and on αvβ6 was below 100 nM in each case.
On to `CC(C)(C(=O)N[C@@H](CNC(=O)[C@@H]1CCCN(CCCc2ccc3c(n2)NCCC3)C1)C(=O)O)c1ccccc1` [Compound 546], for which the IC50 against αvβ1 and against αvβ6 was below 100 nM in each case.
As for `C[C@H]1CCN(CCCc2ccc3c(n2)NCCC3)C[C@H]1C(=O)N[C@@H](CC(=O)O)c1ccccc1` [Compound 378], the IC50 against αvβ1 was above 1000 nM; at αvβ6 it was 100 to 1000 nM.
On to `O=C(O)C[C@@H](CC(=O)N[C@H]1CCN(C(=O)CCCc2ccc3c(n2)NCCC3)C1)c1ccccc1` [Compound 521], for which the IC50 against αvβ1 was below 100 nM; at αvβ6, 100 to 1000 nM.
For `O=C(O)C(CCO[C@@H]1CCCN(CCCc2ccc3c(n2)NCCC3)C1)c1ccnc(-c2ccccc2)c1` (some centres unmarked) [Compound 505] the same measures were above 1000 nM and above 1000 nM.
In the same order, the values of `O=C(O)[C@@H](CCO[C@@H]1CCCN(CCCc2ccc3c(n2)NCCC3)C1)Nc1ncnc2ccccc12` [Compound 332] are above 1000 nM and 100 to 1000 nM.
In the same order, the values of `O=C(NC[C@H](C(=O)O)c1cccc2n[nH]cc12)[C@@H]1CCCN(CCCc2ccc3c(n2)NCCC3)C1` [Compound 318] are 100 to 1000 nM and above 1000 nM.
Consider `O=C(O)[C@H](CCO[C@@H]1CCCN(CCCc2ccc3c(n2)NCCC3)C1)c1ccc(F)c(-c2ccccc2)c1` [Compound 499], for which the IC50 is above 1000 nM on αvβ1 and below 100 nM against αvβ6.
For `O=C(NC[C@H](C(=O)O)c1cccc(-c2ccccc2)c1)[C@@H]1CCCN(CCCc2ccc3c(n2)NCCC3)C1` [Compound 256-B, 2-([1,1′-biphenyl]-3-yl)-3-((R)-1-(3-(5,6,7,8-tetrahydro-1,8-naphthyridin-2-yl)propyl)piperidine-3-carboxamido)propanoic acid] the same measures were below 100 nM and below 100 nM.
In the same order, the values of `O=C(O)C[C@H](NC(=O)[C@H]1CN(CCCc2ccc3c(n2)NCCC3)CC(F)(F)C1)c1ccccc1` [Compound 291-B, (3S)-3-(5,5-difluoro-1-(3-(5,6,7,8-tetrahydro-1,8-naphthyridin-2-yl)propyl)piperidine-3-carboxamido)-3-phenylpropanoic acid] are 100 to 1000 nM and 100 to 1000 nM.
For `O=C(O)C(CNC(=O)[C@@H]1CCCN(CCCc2ccc3c(n2)NCCC3)C1)c1cccc(Br)c1` (stereo partly drawn) [Compound 255, 2-(3-bromophenyl)-3-((R)-1-(3-(5,6,7,8-tetrahydro-1,8-naphthyridin-2-yl)propyl)piperidine-3-carboxamido)propanoic acid hydrochloride] the same measures were below 100 nM and below 100 nM.
In the case of `O=C(NC[C@H](C(=O)O)c1cccc(-c2cccc(C(F)(F)F)c2)c1)[C@@H]1CCCN(CCCc2ccc3c(n2)NCCC3)C1` [Compound 518], the concentration for half-maximal inhibition (IC50) at αvβ1 and on αvβ6 was below 100 nM throughout.
Regarding `O=C(O)C[C@@H](NC(=O)[C@@H]1CCCN(CCCc2ccc3c(n2)NCCC3)C1)c1ccc(F)c(C2CC2)c1` [Compound 244-B, 3-(3-cyclopropyl-4-fluorophenyl)-3-((R)-1-(3-(5,6,7,8-tetrahydro-1,8-naphthyridin-2-yl)propyl)piperidine-3-carboxamido)propanoic acid], the IC50 at αvβ1 and against αvβ6 was below 100 nM throughout.
On to `O=C(O)C[C@H](CO[C@@H]1CCCN(CCCc2ccc3c(n2)NCCC3)C1)c1cncc(C2CC2)c1` [Compound 489], for which the IC50 against αvβ1 and on αvβ6 was below 100 nM throughout.
Consider `O=C(O)C[C@H](O[C@@H]1CCCN(CCCCc2ccc3c(n2)NCCC3)C1)c1ccccc1` [Compound 393], for which the IC50 against αvβ1 and against αvβ6 was above 1000 nM in each case.
`O=C(O)CC(NC(=O)[C@@H]1CCCN(CCCc2ccc3c(n2)NCCC3)C1)c1cccc2c1CCO2` (stereo partly drawn) [Compound 219, 3-(2,3-dihydrobenzofuran-4-yl)-3-((R)-1-(3-(5,6,7,8-tetrahydro-1,8-naphthyridin-2-yl)propyl)piperidine-3-carboxamido)propanoic acid hydrochloride]: the IC50 against αvβ1 and against αvβ6 was below 100 nM in each case.
As to `O=C(NC[C@H](NS(=O)(=O)c1cccc2c1CCC2)C(=O)O)[C@@H]1CCCN(CCCc2ccc3c(n2)NCCC3)C1` [Compound 543], the IC50 on αvβ1 and at αvβ6 was below 100 nM each time.
Regarding `O=C(O)[C@H](CCO[C@@H]1CCCN(CCCc2ccc3c(n2)NCCC3)C1)c1cccc2nn(CC3CC3)cc12` [Compound 501], the IC50 on αvβ1 is above 1000 nM; against αvβ6 it was 100 to 1000 nM.
For the compound `O=C(O)C[C@H](NC(=O)[C@@H]1CCCN(CCCc2ccc3c(n2)NCCC3)C1)c1cccc2c1CCO2` [Compound 615], the IC50 at αvβ1 and against αvβ6 was below 100 nM each time.
Turning to `Cc1csc2c(N[C@@H](CNC(=O)[C@@H]3CCCN(CCCc4ccc5c(n4)NCCC5)C3)C(=O)O)ncnc12` [Compound 277, (2S)-2-[(7-methylthieno[3,2-d]pyrimidin-4-yl)amino]-3-[[(3R)-1-[3-(5,6,7,8-tetrahydro-1,8-naphthyridin-2-yl)propyl]piperidine-3-carbonyl]amino]propanoic acid], the IC50 against αvβ1 and at αvβ6 was below 100 nM throughout.
For the compound `O=C(O)C[C@H](NC(=O)[C@@H]1CCCN(CCCc2ccc3c(n2)NCCC3)C1)c1cc(C2CC2)ccc1F` [Compound 245-A, 3-(5-cyclopropyl-2-fluorophenyl)-3-((R)-1-(3-(5,6,7,8-tetrahydro-1,8-naphthyridin-2-yl)propyl)piperidine-3-carboxamido)propanoic acid], the figures for the IC50 against αvβ1 and on αvβ6 were 100 to 1000 nM and below 100 nM, respectively.
For `O=C(O)C[C@H](NC(=O)[C@@H]1CCCN(CCCc2ccc3c(n2)NCCC3)C1)c1cnc2ccccc2c1` [Compound 540] the same measures were 100 to 1000 nM and 100 to 1000 nM.
For the compound `O=C(N[C@@H](CNC(=O)[C@@H]1CCCN(CCCc2ccc3c(n2)NCCC3)C1)C(=O)O)c1cc(Cl)ccc1Cl` [Compound 364], the concentration for half-maximal inhibition (IC50) against αvβ1 and at αvβ6 was below 100 nM each time.
Take `O=C(NC[C@@H](C(=O)O)c1ccc(F)c(-c2ccccc2)c1)[C@@H]1CCCN(CCCc2ccc3c(n2)NCCC3)C1` [Compound 308]: the IC50 against αvβ1 and at αvβ6 was 100 to 1000 nM throughout.
With `O=C(O)[C@@H](CO[C@@H]1CCCN(Cc2ccc3c(n2)NCCC3)C1)c1ccccc1` [Compound 389], the IC50 against αvβ1 and on αvβ6 was above 1000 nM in each case.
In the case of `O=C(O)C[C@@H](CO[C@@H]1CCCN(CCCCc2ccc3c(n2)NCCC3)C1)c1ccccc1` [Compound 358], the IC50 on αvβ1 is below 100 nM; against αvβ6 it was above 1000 nM.
In the same order, the values of `O=C(CC[C@@H](C(=O)O)c1ccccc1)N[C@H]1CCN(CCCCc2ccc3c(n2)NCCC3)C1` [Compound 425] are above 1000 nM and above 1000 nM.
For the compound `O=C(O)CC(NC(=O)[C@@H]1CCCN(CCCc2ccc3c(n2)NCCC3)C1)c1cccc2ccccc12` (some centres unmarked) [Compound 339], the IC50 against αvβ1 and on αvβ6 was below 100 nM each time.
Consider `O=C(O)[C@@H](CCO[C@@H]1CCCN(CCc2ccc3c(n2)NCCC3)C1)NC(=O)C12CCC(CC1)CC2` [Compound 383], for which the results for the IC50 against αvβ1 and on αvβ6 were below 100 nM and 100 to 1000 nM, respectively.
For `O=C(NC[C@@H](C(=O)O)c1cccc2cnn([C@H]3CCOC3)c12)[C@@H]1CCCN(CCCc2ccc3c(n2)NCCC3)C1` [Compound 320], the IC50 against αvβ1 and at αvβ6 was above 1000 nM in each case.
As to `O=C(CC[C@H](C(=O)O)c1ccccc1)N[C@H]1CCN(CCCCc2ccc3c(n2)NCCC3)C1` [Compound 422], the IC50 at αvβ1 and against αvβ6 was above 1000 nM throughout.
Turning to `O=C(NC[C@H](C(=O)O)c1ccc2c(c1)CCCC2)[C@@H]1CCCN(CCCc2ccc3c(n2)NCCC3)C1` [Compound 248-A, 3-((R)-1-(3-(5,6,7,8-tetrahydro-1,8-naphthyridin-2-yl)propyl)piperidine-3-carboxamido)-2-(5,6,7,8-tetrahydronaphthalen-2-yl)propanoic acid], the IC50 against αvβ1 and on αvβ6 was 100 to 1000 nM each time.
For `O=C(NC[C@H](C(=O)O)c1cccc(-c2ccncc2)c1)[C@@H]1CCCN(CCCc2ccc3c(n2)NCCC3)C1` [Compound 517], the IC50 against αvβ1 and at αvβ6 was below 100 nM in each case.
`O=C(NC[C@H](C(=O)O)c1ccc(F)c(-c2ccccc2)c1F)[C@@H]1CCCN(CCCc2ccc3c(n2)NCCC3)C1` [Compound 622]: the IC50 against αvβ1 and at αvβ6 was 100 to 1000 nM each time.
In the case of `O=C(O)[C@@H](CCO[C@@H]1CCCN(CCCc2ccc3c(n2)NCCC3)C1)Nc1ncnc2sccc12` [Compound 498], the IC50 at αvβ1 and on αvβ6 was below 100 nM each time.
For the compound `O=C(CC[C@@H](C(=O)O)c1ccccc1)N[C@@H]1CCN(C(=O)CCCc2ccc3c(n2)NCCC3)C1` [Compound 419], the IC50 at αvβ1 and at αvβ6 was above 1000 nM each time.
Regarding `C[C@H]1C[C@H](C(=O)N[C@@H](CC(=O)O)c2ccccc2)CN(CCCc2ccc3c(n2)NCCC3)C1` [Compound 380], the figures for the IC50 on αvβ1 and against αvβ6 were 100 to 1000 nM and below 100 nM, respectively.

What is called IC50 is the concentration that gives 50% inhibition. Read a low IC50 as inhibition by little substance.
